Laboratory results reported in PubChem BioAssay (NCI).
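Results reflect a 48-hour exposure of cells in 96-well plates to compound at five concentrations. TGI marks complete inhibition of growth.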

Tests used:
Assay in all cases: NCI tumour cell line growth inhibition, 48 h
MOLT-4 leukemia = test system: MOLT-4 leukemia
OVCAR-4 ovarian = test system: OVCAR-4 ovarian
SF-539 CNS = test system: SF-539 CNS
MDA-MB-231 breast = test system: MDA-MB-231 breast
HCC-2998 colon = test system: HCC-2998 colon
HCT-116 colon = test system: HCT-116 colon
RPMI-8226 leukemia = test system: RPMI-8226 leukemia
NCI/ADR-RES ovarian = test system: NCI/ADR-RES ovarian
OVCAR-8 ovarian = test system: OVCAR-8 ovarian
U251 CNS = test system: U251 CNS
NCI-H23 lung = test system: NCI-H23 lung
SNB-19 CNS = test system: SNB-19 CNS
OVCAR-3 ovarian = test system: OVCAR-3 ovarian
MDA-MB-435 = test system: MDA-MB-435
TK-10 renal = test system: TK-10 renal
RXF 393 renal = test system: RXF 393 renal
MALME-3M melanoma = test system: MALME-3M melanoma

| Structure (SMILES) | TGI (MOLT-4 leukemia) [µM] | TGI (OVCAR-4 ovarian) [µM] | TGI (SF-539 CNS) [µM] | TGI (MDA-MB-231 breast) [µM] | TGI (HCC-2998 colon) [µM] | TGI (HCT-116 colon) [µM] | TGI (RPMI-8226 leukemia) [µM] | TGI (NCI/ADR-RES ovarian) [µM] | TGI (OVCAR-8 ovarian) [µM] | TGI (U251 CNS) [µM] | TGI (NCI-H23 lung) [µM] | TGI (SNB-19 CNS) [µM] | TGI (OVCAR-3 ovarian) [µM] | TGI (MDA-MB-435) [µM] | TGI (TK-10 renal) [µM] | TGI (RXF 393 renal) [µM] | TGI (MALME-3M melanoma) [µM] |
| --- | --- | --- | --- | --- | --- | --- | --- | --- | --- | --- | --- | --- | --- | --- | --- | --- | --- |
| CN1C(=O)[C@@H]2N(CSC2(C)C)C1=S | > 100 | > 100 | > 100 | > 100 | > 100 | > 100 | > 100 | > 100 | > 100 | > 100 | > 100 | > 100 | > 100 | > 100 | > 100 | > 100 | – |
| CC(C)(C)OC(=O)NC(Cc1ccc(OCc2ccccc2)cn1)C(=O)NCc1ccccc1 (stereo not drawn) | 42 | – | – | 75.1 | > 100 | 83.6 | 44.9 | 48.7 | 82.1 | > 100 | 47.3 | > 100 | 43.2 | 48.1 | > 100 | > 100 | 65.7 |
| NCCCCN(CCCN)Cc1ccccc1 | > 100 | > 100 | > 100 | > 100 | > 100 | > 100 | > 100 | > 100 | > 100 | > 100 | > 100 | > 100 | > 100 | > 100 | > 100 | > 100 | – |
| N#Cc1c(N)c2c(c(-c3ccccc3)c1-c1ccccc1)C(=O)N(NC(=O)c1ccccc1)C2=O | > 100 | > 100 | > 100 | > 100 | > 100 | > 100 | > 100 | > 100 | > 100 | > 100 | – | > 100 | > 100 | > 100 | > 100 | > 100 | > 100 |
| COC(=O)n1c(=O)n(-c2ccccc2)c(=O)n1C(=O)Nc1ccccc1 | > 100 | 87.8 | – | > 100 | > 100 | > 100 | > 100 | > 100 | > 100 | > 100 | > 100 | > 100 | > 100 | > 100 | > 100 | > 100 | > 100 |
| CCOC(=O)CCC(NC(=O)c1ccc(Nc2nc3ccccc3n3cccc23)cc1)C(=O)OCC (stereo not drawn) | 82.8 | – | 34.6 | 48.4 | > 100 | > 100 | > 100 | 48.5 | 77.9 | 62.3 | > 100 | > 100 | 44.6 | > 100 | 64.7 | 32.8 | > 100 |
| COc1c(C)c(C/C=C(\C)CCCCO)c(OC)c(OC)c1OC | > 100 | > 100 | > 100 | > 100 | – | > 100 | 35.4 | > 100 | > 100 | > 100 | > 100 | > 100 | > 100 | > 100 | > 100 | > 100 | – |
| c1ccc(N=c2sc3ccccc3sc2=Nc2ccccc2)cc1 | > 100 | 3.68 | 3.42 | 3.67 | 3.24 | 3.18 | > 100 | 7.03 | 4.08 | 3.3 | 3.82 | 16.7 | – | 3.99 | 12.9 | 3.49 | 3.57 |
| CC1=C(C#N)C2C(=C(N)Oc3ccccc32)C(N)=N1 (stereo not drawn) | > 100 | 77.7 | 61.3 | 66.6 | 69.8 | > 100 | 77.3 | 45.6 | 56.8 | > 100 | – | 56.3 | > 100 | > 100 | 47.5 | > 100 | 35.5 |
| CC(C)Oc1ccc(CNC2=NCCO2)c2ccccc12 | 19.8 | 31.1 | 24 | 28.9 | 25.3 | 27 | 28.3 | 31.9 | 31.9 | 32.1 | 30.2 | 23 | – | 24.2 | 30.2 | 28.3 | 28 |
| COc1ccc(N2C(=O)c3cccnc3S2(=O)=O)cc1 | > 100 | > 100 | > 100 | > 100 | > 100 | > 100 | > 100 | > 100 | > 100 | > 100 | > 100 | > 100 | > 100 | > 100 | – | > 100 | > 100 |
| CC(C)c1c(O[Si](C(C)C)(C(C)C)C(C)C)c2c3c(ccc4c3c1OC4(C)C)C(C)CC2 (stereo not drawn) | > 100 | > 100 | > 100 | > 100 | – | > 100 | > 100 | > 100 | > 100 | > 100 | > 100 | > 100 | > 100 | > 100 | > 100 | > 100 | > 100 |
| Cc1ccsc1C(=O)C(CC(=O)c1cccs1)c1ccsc1 (stereo not drawn) | > 100 | > 100 | > 100 | > 100 | > 100 | > 100 | – | > 100 | > 100 | > 100 | > 100 | > 100 | > 100 | > 100 | > 100 | > 100 | > 100 |
| CC(C)[Si](OC1=C(C(=O)N(C)c2ccccc2Cl)CCCC1)(C(C)C)C(C)C | 43 | 28.9 | 32.7 | 31.3 | 28.1 | – | 55.4 | 29.6 | 30.2 | 25.8 | 31.4 | 25.6 | 27.5 | 31.2 | 29.5 | 30.1 | 26.4 |
| CC(=O)c1nc2ccccc2n1CC(=O)c1ccc(Cl)cc1 | > 100 | > 100 | > 100 | > 100 | – | > 100 | > 100 | 22.2 | 85.8 | > 100 | > 100 | > 100 | 23.2 | > 100 | > 100 | 98.5 | 22.6 |
